In ChEMBL document CHEMBL1152837, “Ligand binding to nucleic acids and proteins: Does selectivity increase with strength?” (Eur J Med Chem, 2008):

Key:
Nucleic Acid [1] = assay: Binding affinity to poly(dA).poly(dT) duplex DNA assessed as ratio of KA to KB by ESI-MS analysis; assay type: nucleic-acid assay
Nucleic Acid [2] = assay: Binding affinity to poly(A).poly(U) RNA assessed as change in melting temperature; assay type: nucleic-acid assay
Nucleic Acid [3] = assay: Binding affinity to poly(dA).poly(dT) DNA assessed as change in melting temperature; assay type: nucleic-acid assay
[4] = target: Kappa-type opioid receptor (Rattus norvegicus, UniProt P34975); assay: Binding affinity to kappa opioid receptor in rat brain membrane; assay type: cell membranes
Kappa-type opioid receptor, sequence (P34975 whole entry): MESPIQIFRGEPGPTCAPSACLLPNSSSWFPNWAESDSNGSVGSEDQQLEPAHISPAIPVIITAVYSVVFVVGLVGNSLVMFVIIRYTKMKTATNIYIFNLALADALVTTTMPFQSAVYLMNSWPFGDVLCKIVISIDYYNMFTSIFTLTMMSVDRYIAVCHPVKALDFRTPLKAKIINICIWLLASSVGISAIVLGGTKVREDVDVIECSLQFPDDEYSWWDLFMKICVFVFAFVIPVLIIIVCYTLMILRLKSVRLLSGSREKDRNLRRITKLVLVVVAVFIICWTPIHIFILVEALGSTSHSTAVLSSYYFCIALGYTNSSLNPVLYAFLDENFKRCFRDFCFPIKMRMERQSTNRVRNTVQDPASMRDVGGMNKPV

[5] = target: Delta-type opioid receptor (Rattus norvegicus, UniProt P33533); assay: Binding affinity to delta opioid receptor in rat brain membrane; assay type: cell membranes
Delta-type opioid receptor, sequence (P33533 whole entry): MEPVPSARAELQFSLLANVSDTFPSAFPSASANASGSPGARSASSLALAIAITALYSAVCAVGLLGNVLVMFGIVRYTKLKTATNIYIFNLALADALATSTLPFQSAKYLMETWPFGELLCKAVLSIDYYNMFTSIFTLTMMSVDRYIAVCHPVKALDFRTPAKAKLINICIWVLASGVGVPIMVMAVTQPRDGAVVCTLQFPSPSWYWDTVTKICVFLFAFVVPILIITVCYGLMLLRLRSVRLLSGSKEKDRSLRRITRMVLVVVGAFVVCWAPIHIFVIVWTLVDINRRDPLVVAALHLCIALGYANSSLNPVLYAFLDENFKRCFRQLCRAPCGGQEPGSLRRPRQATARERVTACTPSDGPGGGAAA

`Cn1cc(NC(=O)c2cc(NC(=O)c3cc(NC=O)cn3C)cn2C)cc1C(=O)NCCC(=N)N` showed a Ratio (Nucleic Acid [1]) of 4.4.
`CCOc1ccc(-c2nc3cc(-c4nc5cc(N6CCN(C)CC6)ccc5[nH]4)ccc3[nH]2)cc1` gave a Ratio (Nucleic Acid [1]) of 3.7.
In the case of `Cn1cc(NC(=O)c2cc(NC(=O)CNC(=N)N)cn2C)cc1C(=O)NCCC(=N)N`, the Ratio (Nucleic Acid [1]) is reported as 0.28.
`CC[n+]1c(-c2ccccc2)c2cc(N)ccc2c2ccc(N)cc21` was tested, and the ΔTm (Nucleic Acid [2]) was 17 °C.
With `N=C(N)c1ccc(/N=N/Nc2ccc(C(=N)N)cc2)cc1` the Ratio (Nucleic Acid [1]) was 0.32.
With `COc1cccc2c1C(=O)c1c(O)c3c(c(O)c1C2=O)C[C@@](O)(C(=O)CO)C[C@@H]3O[C@H]1C[C@H](N)[C@H](O)[C@H](C)O1` the ΔTm (Nucleic Acid [3]) was 13 °C.
`O=C1c2c(O)ccc(O)c2C(=O)c2c(NCCNCCO)ccc(NCCNCCO)c21` showed a ΔTm (Nucleic Acid [3]) of 23 °C.
In the case of `CN1CCN(c2ccc3[nH]c(-c4ccc5[nH]c(-c6ccc(O)cc6)nc5c4)nc3c2)CC1`, the Ratio (Nucleic Acid [1]) is reported as 2.4.
`CN1CC[C@]23c4c5ccc(O)c4O[C@H]2c2[nH]c4ccccc4c2C[C@@]3(O)[C@H]1C5` [OXYMORPHINDOLE] was tested, and the Ki [4] was 2170 nM and the Ki [5] was 0.8 nM.
`Oc1ccc2c3c1O[C@H]1c4[nH]c5ccccc5c4C[C@@]4(O)[C@@H](C2)N(CC2CC2)CC[C@]314` [NALTRINDOLE] was tested, and the Ki [4] was 30 nM.
Compound `COc1cc2cc3c4cc(OC)c(OC)cc4cc[n+]3c(C)c2cc1OC` has a ΔTm (Nucleic Acid [3]) of 18 °C.
